US10464896B2, “Efflux-pump inhibitors and therapeutic uses thereof” (Basilea Pharmaceutica International AG, priority 2015, dated 2019)

system: E. coli ATCC25922; assay: Antibacterial activity in combination with minocycline (growth inhibition); type: cell-based; conditions: Escherichia coli, ATCC25922, compound at 25 μM; minocycline 0.25 μg/mL; OD625 23 h minus 1 h; read-out: residual growth of E. coli ATCC25922 (% of uninhibited control) with minocycline
Experimental: Antibacterial activity in combination with minocycline or with linezolid
Inhibition of growth was measured with E. coli ATCC25922 and P. aeruginosa PAO1 in a 96-well plate format. Cation-adjusted Müller-Hinton broth (caMHB) was inoculated with an overnight culture and incubated at 37° C. on a shaker until OD625 reached 0.6 to 0.7. Density was adjusted to OD600=0.5 by addition of caMHB. 35 μL of the suspension were diluted to 35 mL with caMHB and supplemented with minocycline at the subinhibitory doses of 0.25 μg/mL for E. coli and 8 μg/mL for P. aeruginosa or with linezolid at the subinhibitory dose of 128 μg/mL for E. coli and P. aeruginosa. Each well contained 1 μL of test compound in 100 μL caMHB with minocycline or with linezolid.
Plates were incubated at 37° C. on a plate shaker. OD625 was measured at 1 h, 6 h, and at 23 h.
The difference between OD at 23 h and at 1 h was taken as measure for cell density and compared to controls without inhibitor (i.e. uninhibited control). Results were expressed as residual growth (% of uninhibited control). Enhancement of minocycline or linezolid activity caused reduced residual growth.

SMILES	activity at 25 µM [%]
O=C(O)c1ccc(COc2cc(CNCC3CCNC3)cc(OCc3ccc(Cl)cc3Br)c2)cc1 (stereo not shown) [Example 205]	≤ 10
Ic1ccc(COc2cccc(CNCC3CCNC3)c2)cc1 (stereo not shown) [Example 207]	≤ 10
Clc1ccc(/C=C/c2cc(Cl)ccc2OCCNCC2CNC2)c(Br)c1 [Example 209]	≤ 10
Clc1ccc(/C=C/c2cc(Cl)ccc2OCCNCC2CCNC2)c(Br)c1 (stereo not shown) [Example 210]	≤ 10
C=CCOc1ccc(OCCNCC2CCNC2)c(/C=C/c2ccc(Cl)cc2Br)c1 (stereo not shown) [Example 211]	≤ 10
C=CCOc1ccc(OCCNCC2CNC2)c(/C=C/c2ccc(Cl)cc2Br)c1 [Example 212]	≤ 10
C=CCOc1ccc(OCCCNCC2CCNC2)c(/C=C/c2ccc(Cl)cc2Br)c1 (stereo not shown) [Example 213]	≤ 10
C=CCOc1ccc(OCCCNCC2CNC2)c(/C=C/c2ccc(Cl)cc2Br)c1 [Example 214]	≤ 10
CC(C)(C)c1ccc(COc2ccc(CNCC3CCNC3)cc2)cc1 (stereo not shown) [Example 215]	≤ 10
CC(C)(C)c1ccc(COc2cccc(CNCC3CCNC3)c2)cc1 (stereo not shown) [Example 216]	≤ 10
CC(C)c1cc(CNCC2CCNC2)cc(OCc2ccc(Cl)cc2Br)c1 (stereo not shown) [Example 217]	≤ 10
CC(C)(C)c1cc(CNCC2CCNC2)cc(OCc2ccc(Cl)cc2Br)c1 (stereo not shown) [Example 218]	≤ 10
CC(C)c1cc(CNCC2CNC2)cc(OCc2ccc(Cl)cc2Br)c1 [Example 224]	≤ 10
CC(C)(C)c1cc(CNCC2CNC2)cc(OCc2ccc(Cl)cc2Br)c1 [Example 225]	≤ 10
CC(C)(C)c1ccc(COc2cc(Cl)cc(CNC3CCNCC3)c2)cc1 [Example 226]	≤ 10
CC(C)(C)c1ccc(COc2cc(Cl)cc(CNCC3CCNC3)c2)cc1 (stereo not shown) [Example 227]	≤ 10
CC(C)(C)c1ccc(COc2cc(Cl)cc(CNCC3CNC3)c2)cc1 [Example 228]	≤ 10
Clc1ccc(COc2cccc(CNCC3CNC3)c2)c(I)c1 [Example 229]	≤ 10
Clc1ccc(COc2cccc(CNCC3CCNC3)c2)c(I)c1 (stereo not shown) [Example 230]	≤ 10
CC(C)(C)c1ccc(COc2ccc(CNCC3CNC3)cc2)cc1 [Example 231]	≤ 10
CC(C)(C)c1ccc(/C=C/c2cccc(CNCC3CCNC3)c2)cc1 (stereo not shown) [Example 233]	≤ 10
CC(C)(C)c1ccc(/C=C/c2cccc(CNCC3CNC3)c2)cc1 [Example 234]	≤ 10
CC(C)(C)c1ccc(/C=C\c2cccc(CNC3CCNCC3)c2)cc1 [Example 235]	≤ 10
CC(C)(C)c1ccc(/C=C\c2cccc(CNCC3CCNC3)c2)cc1 (stereo not shown) [Example 236, 1-[3-[(Z)-2-(4-tert-butylphenyl)vinyl]phenyl]-N-(pyrrolidin-3-ylmethyl)methanamine]	≤ 10

SMILES	activity at 25 µM [%]
CC(C)(C)c1ccc(/C=C\c2cccc(CNCC3CNC3)c2)cc1 [Example 237]	≤ 10
Clc1ccc(COc2cc(CNCC3CCNC3)cc(OCCN3CCOCC3)c2)c(Br)c1 (stereo not shown) [Example 238]	≤ 10
Clc1ccc(COc2cc(CNCC3CNC3)cc(OCCN3CCOCC3)c2)c(Br)c1 [Example 239]	≤ 10
CC(C)(C)c1ccc(/C=C/c2cccc(CNC3CCNCC3)c2)cc1 [Example 240]	≤ 10
Clc1ccc(/C=C\c2cc(CNCC3CCNC3)cc(OCCN3CCOCC3)c2)c(Br)c1 (stereo not shown) [Example 241]	≤ 10
Clc1ccc(/C=C\c2cc(CNCC3CNC3)cc(OCCN3CCOCC3)c2)c(Br)c1 [Example 242]	≤ 10
Clc1ccc(/C=C/c2cc(CNCC3CNC3)cc(OCCN3CCOCC3)c2)c(Br)c1 [Example 243]	≤ 10
Clc1ccc(/C=C/c2cc(CNCC3CCNC3)cc(OCCN3CCOCC3)c2)c(Br)c1 (stereo not shown) [Example 246]	≤ 10
C[N+]1(C)CC(OCCOc2cc(CNCC3CCNC3)cc(OCc3ccc(Cl)cc3Br)c2)CC1C(=O)O (stereo not shown) [Example 247]	≤ 10
C[N+]1(C)CC(OCCOc2cc(CNCC3CNC3)cc(OCc3ccc(Cl)cc3Br)c2)CC1C(=O)O (stereo not shown) [Example 248]	≤ 10
CN1CC(OCCOc2cc(CNCC3CNC3)cc(OCc3ccc(Cl)cc3Br)c2)CC1C(=O)O (stereo not shown) [Example 249]	≤ 10
Clc1ccc(COc2cc(CNCC3CNC3)cc(OCCc3c[nH]cn3)c2)c(Br)c1 [Example 252]	≤ 10
Clc1ccc(/C=C\c2cc(CNCC3CCNC3)cc(OCCc3ccncc3)c2)c(Br)c1 (stereo not shown) [Example 253]	≤ 10
Clc1ccc(/C=C/c2cc(CNCC3CCNC3)cc(OCCc3ccncc3)c2)c(Br)c1 (stereo not shown) [Example 254]	≤ 10
Clc1ccc(/C=C\c2cc(CNCC3CNC3)cc(OCCc3c[nH]cn3)c2)c(Br)c1 [Example 255]	≤ 10
Clc1ccc(COc2cc(CNCC3CNC3)cc(OCCc3ccncc3)c2)c(Br)c1 [Example 256]	≤ 10
Clc1ccc(/C=C\c2cc(CNCC3CNC3)cc(OCCc3ccncc3)c2)c(Br)c1 [Example 257]	≤ 10
Clc1ccc(COc2cc(CNCC3CCNC3)cc(OCCc3ccncc3)c2)c(Br)c1 (stereo not shown) [Example 258]	≤ 10
Clc1ccc(/C=C\c2cc(CNCC3CCNC3)cc(OCCc3c[nH]cn3)c2)c(Br)c1 (stereo not shown) [Example 259]	≤ 10
Clc1ccc(/C=C/c2cc(CNCC3CNC3)cc(OCCc3ccncc3)c2)c(Br)c1 [Example 260]	≤ 10
Clc1ccc(/C=C/c2cc(CNCC3CNC3)cc(OCCc3c[nH]cn3)c2)c(Br)c1 [Example 261]	≤ 10
Clc1ccc(/C=C/c2cc(CNCC3CCNC3)cc(OCCc3c[nH]cn3)c2)c(Br)c1 (stereo not shown) [Example 262]	≤ 10
CC(C)COc1cc(CNCC2CCNC2)cc(OCc2ccc(C(F)(F)F)cc2)c1 (stereo not shown) [Example 264]	≤ 10
CC(C)COc1cc(CNCC2CCNC2)cc(OCc2ccc(C(F)(F)F)cc2C(F)(F)F)c1 (stereo not shown) [Example 265]	≤ 10

SMILES	activity at 25 µM [%]
COc1cc(C#N)ccc1COc1cc(CNCC2CCNC2)cc(OCC(C)C)c1 (stereo not shown) [Example 266]	≤ 10
CC(C)COc1cc(CNCC2CCNC2)cc(OCc2ccc(Cl)cn2)c1 (stereo not shown) [Example 267]	≤ 10
CC(C)COc1cc(CNCC2CCNC2)cc(OCc2ccc(F)cc2Br)c1 (stereo not shown) [Example 268]	≤ 10
CC(C)COc1cc(CNCC2CCNC2)cc(OCc2ccc(Cl)nc2)c1 (stereo not shown) [Example 269]	≤ 10
CC(C)COc1cc(CNCC2CCNC2)cc(OCc2ccc(C(F)(F)F)cc2F)c1 (stereo not shown) [Example 271]	≤ 10
C=CCOc1cc(/C=C/c2ccc(F)cc2)cc(CNCC2CNC2)c1 [Example 272]	≤ 10
CC(C)COc1cc(CNCC2CNC2)cc(OCc2ccc(C(C)(C)C)cc2)c1 [Example 274]	≤ 10
C=CCOc1cc(/C=C/c2ccc(C(F)(F)F)cc2)cc(CNCC2CNC2)c1 [Example 275]	≤ 10
CC(C)COc1cc(CNCC2CCNC2)cc(OCc2ccc(F)cc2C(F)(F)F)c1 (stereo not shown) [Example 280]	≤ 10
CC(C)COc1cc(CNCC2CCNC2)cc(OCc2ccc(Cl)cc2C(F)(F)F)c1 (stereo not shown) [Example 281]	≤ 10
CC(C)COc1cc(CNCC2CCNC2)cc(OCc2ccc(C(F)(F)F)cc2Br)c1 (stereo not shown) [Example 282]	≤ 10
CC(C)COc1cc(CNCC2CCNC2)cc(OCc2ccc(F)nc2F)c1 (stereo not shown) [Example 283]	≤ 10
C=CCOc1cc(/C=C/c2ccc(C#N)cc2)cc(CNCC2CNC2)c1 [Example 284]	≤ 10
CC(C)COc1cc(CNCC2CCNC2)cc(OCc2ccc(C(F)(F)F)cn2)c1 (stereo not shown) [Example 289]	≤ 10
CC(C)COc1cc(CNCC2CCNC2)cc(OCc2ccc(C(C)(C)C)cc2Br)c1 (stereo not shown) [Example 290]	≤ 10
CC(C)COc1cc(CNCC2CCNC2)cc(OCc2ccc(C(F)(F)F)nc2)c1 (stereo not shown) [Example 291]	≤ 10
C=CCOc1cc(/C=C/c2ccc(C(C)(C)C)cc2)cc(CNCC2CNC2)c1 [Example 292]	≤ 10
C=CCOc1cc(/C=C/c2ccc(OC)cc2)cc(CNCC2CNC2)c1 [Example 294]	≤ 10
CC(C)(C)c1ccc(COc2cc(CNCC3CNC3)cc(C(C)(C)C)c2)cc1 [Example 295]	≤ 10
C=CCOc1cc(CNCC2CNC2)cc(OCc2ccc(C(C)(C)C)cc2)c1 [Example 296]	≤ 10
CC(C)(C)c1ccc(COc2cc(CNCC3CNC3)cc(OCc3ccccc3)c2)cc1 [Example 297]	≤ 10
C=CCOc1cc(/C=C/c2ccc(C#N)c(C(F)(F)F)c2)cc(CNCC2CNC2)c1 [Example 299]	≤ 10
C=CCOc1cc(/C=C/c2ccc(C#N)c(C(F)(F)F)c2)cc(CNCC2CCNC2)c1 (stereo not shown) [Example 300]	≤ 10
N#Cc1ccc(/C=C/c2cccc(CNCC3CCNC3)c2)cc1C(F)(F)F (stereo not shown) [Example 301]	≤ 10

same assay, conditions: Escherichia coli, ATCC25922, compound at 50 μM; minocycline 0.25 μg/mL; OD625 23 h minus 1 h; read-out: residual growth of E. coli ATCC25922 (% of uninhibited control) with minocycline

SMILES	activity at 50 µM [%]
CC(C)COc1cc(CNCC2CCNC2)cc(OCc2cccnc2Br)c1 (stereo not shown) [Example 278]	≤ 50
